# Laboratory results taken from patent US12077495B2 (priority 2018, dated 2024).
# Columns and labels:
# [1] = target: T1, CAMK2A pThr286 autophosphorylation (Mus musculus, UniProt P11798); assay: pThr286 autophosphorylation in dissected mouse cortex after photothrombosis (Western blot); type: in vivo, mice; settings: 175 mg/kg i.p.; cortex tissue; pThr286 normalized to total CAMK2A
# T1 construct: cortical tissue isolated from mice subjected to photothrombotic injury; from tissue; host or cells: mouse cortex (infarct core), C57BL/6J, after in vivo dosing
# Protocol: Along with the standard protocol for photothrombotic focal ischemia, mice were treated with either saline or 175 mg/kg A (i.p.) 30 min after the injury. Three hours after the injury, mice were sacrificed, brains were dissected out and immediately submerged in ice-cold PBS supplemented with 1% phosphatase and protease inhibitors (Phosphatase inhibitor cocktail 3 #P0044 (Sigma), Phosphatase inhibitor cocktail 2 #P5726 (Sigma) and complete EDTA protease inhibitors (Roche) for 5 min. Cortex tissue from the infarct core region (i.e. 1.5 mm right of bregma including the primary motor cortex with a diameter of 2 mm) was dissected and snap-frozen on dry ice. Tissue homogenization was performed using 1×RIPA buffer supplemented with phosphatase and protease inhibitors and a Bullet Blender. Autophosphorylation was assessed by Western blot analysis, comparing the total level of CAMK2A (quantified using anti-CAMK2A, #NB100-1983, Novus Biologicals) to the level of phosphorylated CAMK2A (pThr286: #12716S, Cell Signalling Technology; goat anti-rabbit HRP: #PI-1000 X0126, Vector). […]
# To this end, sham mice or mice were treated with either saline or 175 mg/kg A (i.p.) 3 hrs after the injury. […] Autophosphorylation was assessed by Western blot analysis and levels of pThr286 CAMK2A normalized to total CAMK2A to detect changes in autophosphorylation.
# [2] = test system: photothrombotic focal ischemia in C57BL/6J mice; assay: Photothrombotic model, behavioural assessment (grid-walking and cylinder tasks); type: in vivo; settings: for cylinder task, improvement vs saline / grid-walking task, reduction of asymmetry: 7 days after ischemia
# Protocol: All procedures were performed in accordance with the guidelines on the care and use of laboratory animals set out by the University of Otago, Animal Research Committee and the Guide for Care and Use of Laboratory Animals (NIH Publication No. 85-23, 1996). All in vivo studies were approved by the University of Otago Animal Ethics Committee and are reported according to the ARRIVE (Animal Research: Reporting In Vivo Experiments) guidelines. The photochemical cortical lesion model resembles situations of acute brain injury related clinically to stroke and traumatic brain injury (TBI). Focal ischemia was induced by photothrombosis in male C57BL/6J mice (8-10 weeks) weighing ˜23-30 g as previously described (Clarkson et al., 2010). Under anesthesia with isoflurane (2% to 2.5% in O2) mice were placed in a stereotactic apparatus, the skull exposed through a midline incision, cleared of connective tissue and dried. A cold light source (KL1500 LCD, Zeiss, Auckland, New Zealand) attached to a 40× objective providing a 2-mm diameter illumination was positioned 1.5 mm lateral from bregma. Then, 0.2 ml of Rose Bengal (Sigma-Aldrich, Auckland, New Zealand; 10 mg/ml in normal saline) was administered i.p. After 5 min, the brain was illuminated through the exposed intact skull for 15 min, while keeping body temperature at 37.0±0.3° C. degrees using a heating pad (Harvard apparatus, Holliston, MA, USA). The skin was glued and animals left in a cage placed on a heating pad during the wake-up phase. Mice were housed under a 12-hr light/dark cycle with ad libitum access to food and water. Further, the mice were monitored and weighed on a daily basis.
# For in vivo studies, all compounds were dissolved in a mixture of sterile saline and H2O to obtain isotonicity (0.9%) and administered as 10 mg/ml and 10 μl of solution per gram mouse body weight. The injection of compound (i.p.) was performed 30 min, 3, 6 or 12 hrs after induction of the photothrombotic stroke. The vehicle groups received a corresponding volume of saline (0.9%) at the same time points (30 min, 3, 6 or 12 hrs).
# Forelimb motor performance was determined using the cylinder and grid-walking tasks as previously described (Clarkson et al., 2010). All animals were tested both in a pre- and post-testing session, 1 week before and 3 days or 7 days after the ischemic insult, respectively. Observers who scored the behaviour were blinded to the treatment groups.
# [3] = target: T2, CAMK2A (Rattus norvegicus, UniProt P11275); assay: biochemical; type: binding; settings: whole cell lysates of CAMK2A-transfected HEK293T cells
# T2 construct: host or cells: HEK293T
# Protocol: Cells were transfected with rat CAMK2A (Origene construct RR201121) or rat CAMK2B (Origene construct RR200520) using PolyFect (Qiagen, West Sussex, UK) according to the manufacturer's protocol. Whole cell homogenates were prepared 48 hr post-transfection by washing the cells with ice-cold 1×PBS and harvesting by scraping. Cells were collected and centrifuged for 10 min at 1000×g. Cell pellets were resuspended in ice-cold 1×PBS and homogenized using 2×1 mm zirkonium beads in a bullet blender for 20 s at max speed (NextAdvance, NY, USA). Homogenates were cleared by centrifugation (10 min, 4° C., 14.000×g). Protein concentration was determined using the Bradford protein assay. 150-200 μg protein was incubated with 5 nM ^3H-A and test compound in 1 ml total volume for 1 hr at 0-4° C. […] Proteins were then precipitated by addition of ice-cold acetone (4× of the assay volume), vortexing and incubation at −20° C. for 1 hr. Proteins were filtrated rapidly through GF/C unifilters (Whatman) and washed. The dried filters were added scintillation liquid and radioactivity measured on a Tricarb 2100 Scintillation counter (Packard).
# A) Principle of photoaffinity labelling workflow. […] After introduction of biotin through a Staudinger-Bertozzi ligation to EZ-Link™ Phosphine-PEG3-Biotin (ThermoFisher Scientific), the biotin-labelled proteins were affinity-purified and subjected to LC-MS/MS analysis. […] C)^3H-A binding to cortical membranes from CAMK2A and CAMK2B knock-out mouse brains.
# Human/rat CAMK2A expressed in HEK cells was assayed in an in-house established ^3H-A filtration binding assay performed on whole cell lysates of CAMK2A-transfected HEK293T cells.
# [4] = 175 mg/kg 30 min after ischemia, day 3
# T2 sequence (P11275 whole entry): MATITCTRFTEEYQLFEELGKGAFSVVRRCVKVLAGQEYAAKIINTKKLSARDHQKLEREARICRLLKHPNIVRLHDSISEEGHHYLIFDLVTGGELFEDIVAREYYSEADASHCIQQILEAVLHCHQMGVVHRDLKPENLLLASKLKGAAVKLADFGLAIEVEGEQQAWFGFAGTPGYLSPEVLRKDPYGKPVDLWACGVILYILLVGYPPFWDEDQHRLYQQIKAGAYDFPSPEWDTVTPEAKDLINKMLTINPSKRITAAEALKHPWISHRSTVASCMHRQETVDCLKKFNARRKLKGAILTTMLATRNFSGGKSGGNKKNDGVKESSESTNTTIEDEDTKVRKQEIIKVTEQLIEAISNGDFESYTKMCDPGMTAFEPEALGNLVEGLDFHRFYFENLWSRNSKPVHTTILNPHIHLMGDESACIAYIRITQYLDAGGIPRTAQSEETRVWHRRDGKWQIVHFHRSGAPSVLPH
# T1 sequence (P11798 whole entry): as the sequence (P11275 whole entry) above
smiles,measurement,setting,value
"O=C(O)C1=CC(O)CC1 (stereo not drawn) [Compound A, 3-hydroxycyclopent-1-enecarboxylic acid]",decrease in pThr286 autophosphorylation,[1],73%
same,"cylinder task, reduction of asymmetry","[2]; 17.5 mg/kg 30 min after ischemia, day 3",40%
same,"grid-walking task, reduction vs saline","[2]; 17.5 mg/kg 30 min after ischemia, day 3, non-significant",10%
same,"cylinder task, reduction of asymmetry",[2]; [4],42%
same,"grid-walking task, improvement vs saline",[2]; [4],26%
same,"cylinder task, improvement vs saline",[2]; 175 mg/kg 3 hr after ischemia,16%
same,"grid-walking task, reduction of asymmetry",[2]; 175 mg/kg 3 hr after ischemia,31%
same,"cylinder task, improvement vs saline",[2]; 175 mg/kg 6 hr after ischemia,20%
same,"grid-walking task, reduction of asymmetry",[2]; 175 mg/kg 6 hr after ischemia,22%
same,"cylinder task, improvement vs saline",[2]; 175 mg/kg 12 hr after ischemia,non-significant
same,"grid-walking task, reduction of asymmetry",[2]; 175 mg/kg 12 hr after ischemia,21%
same,Ki,[3],1950 nM
